Laboratory results from ChEMBL document CHEMBL1201862, “PubChem BioAssay data set” (2004).
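Five compound concentrations were applied to cells in 96-well plates for 48 hours; endpoints were derived by simple linear interpolation of the resulting dose-response curve. The concentration for 50% growth inhibition is given as GI50.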 Activity calls are given as the source filed them. Rule as the data show it: active = GI50 up to about 1.1 µM and inactive = higher.

How the values were obtained:
Assay in all cases: NCI anticancer screen, dose series, 48 h
[1] = system: 786-0
[2] = system: A549
[3] = system: ACHN
[4] = system: CCRF-CEM
[5] = system: COLO 205
[6] = system: DLD-1
[7] = system: DMS-273
[8] = system: EKVX
[9] = system: HCC 2998
[10] = system: HCT-116
[11] = system: HCT-15
[12] = system: HL-60
[13] = system: HOP-62
[14] = system: HT-29
[15] = system: IGROV-1
[16] = system: K562
[17] = system: KM-20L2
[18] = system: KM12
[19] = system: LOX IMVI
[20] = system: LXFL 529
[21] = system: M14
[22] = system: M19-MEL
[23] = system: MOLT-4
[24] = system: Malme-3M
[25] = system: NCI-H226
[26] = system: NCI-H23
[27] = system: NCI-H460
[28] = system: NCI-H522
[29] = system: OVCAR-3
[30] = system: OVCAR-4
[31] = system: OVCAR-8
[32] = system: RXF 393
[33] = system: SF-268
[34] = system: SF-295
[35] = system: SF-539
[36] = system: SK-MEL-28
[37] = system: SK-MEL-2
[38] = system: SK-MEL-5
[39] = system: SK-OV-3
[40] = system: SN12C
[41] = system: SNB-19
[42] = system: SNB-75
[43] = system: SNB-78
[44] = system: SR
[45] = system: SW-620
[46] = system: TK-10
[47] = system: U-251
[48] = system: UACC-257
[49] = system: UACC-62
[50] = system: UO-31
[51] = system: XF498
[52] = system: A498
[53] = system: CAKI-1
[54] = system: DMS-114
[55] = system: HOP-92
[56] = system: RPMI-8226

Measured: GI50

Cc1nc2c(n1CCO)C(=O)c1ccccc1C2=O
31.5 µM: [11]
inactive: [1] 46.9 µM | [2] 29.4 µM | [3] 25.1 µM | [4] 27.4 µM | [5] 18.9 µM | [6] 38.2 µM | [7] 20 µM | [8] 55 µM | [9] 41.4 µM | [10] 18.9 µM | [12] 19.9 µM | [13] 28.6 µM | [14] 25.9 µM | [15] 20.3 µM | [16] 25.6 µM | [17] 33.3 µM | [18] 37.7 µM | [19] 23.4 µM | [20] 36.6 µM | [21] 21.4 µM | [22] 2.57 µM | [23] 28.9 µM | [24] 11.8 µM | [25] > 100 µM | [26] 15 µM | [27] 27.3 µM | [28] 14.5 µM | [29] 24.3 µM | [30] 26.2 µM | [31] 30.3 µM | [32] 33.7 µM | [33] 32.5 µM | [34] 48.4 µM | [35] 29.9 µM | [36] 93.3 µM | [37] 18.4 µM | [38] 11.3 µM | [39] > 100 µM | [40] 31.4 µM | [41] 43 µM | [42] 82.2 µM | [43] 46.5 µM | [44] 26.4 µM | [45] 32.8 µM | [46] > 100 µM | [47] 26.5 µM | [48] 16.6 µM | [49] 16.5 µM | [50] > 100 µM | [51] 33 µM

CC1CC2(CCC1OCc1ccccc1)OCCO2 (stereo not given)
> 100 µM: [11]
inactive: [1] > 100 µM | [52] > 100 µM | [2] > 100 µM | [53] > 100 µM | [4] > 100 µM | [5] > 100 µM | [6] > 100 µM | [54] > 100 µM | [7] > 100 µM | [8] > 100 µM | [9] > 100 µM | [10] > 100 µM | [12] > 100 µM | [13] > 100 µM | [55] > 100 µM | [14] > 100 µM | [15] > 100 µM | [16] > 100 µM | [18] > 100 µM | [19] > 100 µM | [20] > 100 µM | [21] > 100 µM | [22] > 100 µM | [23] > 100 µM | [24] > 100 µM | [26] > 100 µM | [27] > 100 µM | [28] > 100 µM | [29] > 100 µM | [30] > 100 µM | [31] > 100 µM | [56] > 100 µM | [32] > 100 µM | [34] > 100 µM | [35] > 100 µM | [37] > 100 µM | [38] > 100 µM | [39] > 100 µM | [40] > 100 µM | [41] > 100 µM | [43] > 100 µM | [45] > 100 µM | [46] > 100 µM | [47] > 100 µM | [48] > 100 µM | [49] > 100 µM | [50] > 100 µM | [51] > 100 µM
